Laboratory results: article PMC8550792, “Evolution of kinase polypharmacology across HSP90 drug discovery” (Cell Chemical Biology, 2021)

How the values were obtained:
Assay in all cases: biochemical
Format in all cases: biochemical
382 unique human kinases [1] = biological target: T1, 382 unique human kinases (Homo sapiens, UniProt Q6P2M8); details: kinase CAMK1b, compound 10 uM; for remaining activity at 10 µM: read-out: % Enzyme Activity (relative to DMSO controls)
T1 construct: purchased Reaction Biology (HotSpot contract assay)
T1 sequence (Q6P2M8 whole entry): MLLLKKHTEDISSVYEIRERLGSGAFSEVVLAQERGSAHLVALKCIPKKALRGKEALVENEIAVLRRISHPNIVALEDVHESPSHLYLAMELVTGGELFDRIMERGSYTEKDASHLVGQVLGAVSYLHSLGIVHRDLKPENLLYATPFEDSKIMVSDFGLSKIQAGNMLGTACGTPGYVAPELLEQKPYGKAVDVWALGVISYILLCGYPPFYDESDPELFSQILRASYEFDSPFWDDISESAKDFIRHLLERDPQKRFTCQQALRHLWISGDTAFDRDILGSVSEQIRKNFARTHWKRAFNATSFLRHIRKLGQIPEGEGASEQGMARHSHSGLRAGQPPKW

382 unique human kinases [2] = biological target: T2, 382 unique human kinases (Homo sapiens, UniProt Q9NRH2); details: SNRK, 10 uM; for remaining activity at 10 µM: read-out: % Enzyme Activity (relative to DMSO controls)
T2 construct: purchased Reaction Biology (HotSpot contract assay)
T2 sequence (Q9NRH2 1-765): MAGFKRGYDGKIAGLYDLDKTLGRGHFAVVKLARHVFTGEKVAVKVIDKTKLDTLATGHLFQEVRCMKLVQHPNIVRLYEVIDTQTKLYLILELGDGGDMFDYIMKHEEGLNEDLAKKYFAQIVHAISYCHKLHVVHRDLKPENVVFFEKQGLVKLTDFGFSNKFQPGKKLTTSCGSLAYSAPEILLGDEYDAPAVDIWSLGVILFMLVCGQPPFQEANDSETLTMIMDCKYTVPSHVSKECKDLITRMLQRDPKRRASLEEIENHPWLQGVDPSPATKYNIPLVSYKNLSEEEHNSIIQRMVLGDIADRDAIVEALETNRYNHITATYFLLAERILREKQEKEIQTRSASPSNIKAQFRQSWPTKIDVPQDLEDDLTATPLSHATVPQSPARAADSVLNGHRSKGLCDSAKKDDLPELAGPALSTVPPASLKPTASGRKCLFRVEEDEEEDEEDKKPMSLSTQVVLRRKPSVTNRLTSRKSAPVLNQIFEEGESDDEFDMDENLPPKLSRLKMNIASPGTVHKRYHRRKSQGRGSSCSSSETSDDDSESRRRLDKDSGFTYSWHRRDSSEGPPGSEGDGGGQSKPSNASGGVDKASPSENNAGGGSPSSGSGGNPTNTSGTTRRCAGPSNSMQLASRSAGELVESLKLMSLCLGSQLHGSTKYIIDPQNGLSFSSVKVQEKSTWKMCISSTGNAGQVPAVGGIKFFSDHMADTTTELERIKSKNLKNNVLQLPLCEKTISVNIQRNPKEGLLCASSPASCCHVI

382 unique human kinases [3] = biological target: T3, 382 unique human kinases (Homo sapiens, UniProt Q8N752); details: CK1a1L, 10 uM; for remaining activity at 10 µM: read-out: % Enzyme Activity (relative to DMSO controls)
T3 construct: purchased Reaction Biology (HotSpot contract assay)
T3 sequence (Q8N752 1-337): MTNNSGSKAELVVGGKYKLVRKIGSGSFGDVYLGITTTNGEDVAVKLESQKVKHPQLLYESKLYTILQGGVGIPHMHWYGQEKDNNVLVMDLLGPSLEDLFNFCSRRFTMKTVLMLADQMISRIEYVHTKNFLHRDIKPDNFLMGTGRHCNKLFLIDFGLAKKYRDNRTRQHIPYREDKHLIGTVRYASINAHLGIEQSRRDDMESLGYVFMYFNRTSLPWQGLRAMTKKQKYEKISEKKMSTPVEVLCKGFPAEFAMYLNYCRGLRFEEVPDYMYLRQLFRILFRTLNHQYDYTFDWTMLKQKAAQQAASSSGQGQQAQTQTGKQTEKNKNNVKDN

382 unique human kinases [4] = biological target: T4, 382 unique human kinases (Homo sapiens, UniProt P41743); details: PKCiota, 10 uM; for remaining activity at 10 µM: read-out: % Enzyme Activity (relative to DMSO controls)
T4 construct: purchased Reaction Biology (HotSpot contract assay)
T4 sequence (P41743 1-596): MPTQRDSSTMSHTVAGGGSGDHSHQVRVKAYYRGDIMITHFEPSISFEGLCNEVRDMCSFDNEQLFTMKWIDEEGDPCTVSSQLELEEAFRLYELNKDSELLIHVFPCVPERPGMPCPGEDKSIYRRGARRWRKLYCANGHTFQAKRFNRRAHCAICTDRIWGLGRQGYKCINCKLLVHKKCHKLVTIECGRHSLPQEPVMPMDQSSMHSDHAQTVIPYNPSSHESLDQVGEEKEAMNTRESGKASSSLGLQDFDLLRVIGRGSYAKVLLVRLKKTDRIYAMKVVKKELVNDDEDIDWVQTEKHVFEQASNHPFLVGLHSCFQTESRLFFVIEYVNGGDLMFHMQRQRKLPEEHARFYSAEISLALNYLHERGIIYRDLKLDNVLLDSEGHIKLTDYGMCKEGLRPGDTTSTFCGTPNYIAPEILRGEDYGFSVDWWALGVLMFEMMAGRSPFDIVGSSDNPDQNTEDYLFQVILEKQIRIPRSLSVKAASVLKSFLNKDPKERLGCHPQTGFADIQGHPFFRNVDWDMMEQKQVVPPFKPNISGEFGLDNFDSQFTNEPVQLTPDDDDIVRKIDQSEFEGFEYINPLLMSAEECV

382 unique human kinases [5] = biological target: T5, 382 unique human kinases (Homo sapiens, UniProt O15146); details: MUSK, [ATP] 15 µM, compound 10 uM; for remaining activity at 10 µM: read-out: % Enzyme Activity (relative to DMSO controls)
T5 construct: purchased Reaction Biology (HotSpot contract assay)
T5 sequence (O15146 24-869): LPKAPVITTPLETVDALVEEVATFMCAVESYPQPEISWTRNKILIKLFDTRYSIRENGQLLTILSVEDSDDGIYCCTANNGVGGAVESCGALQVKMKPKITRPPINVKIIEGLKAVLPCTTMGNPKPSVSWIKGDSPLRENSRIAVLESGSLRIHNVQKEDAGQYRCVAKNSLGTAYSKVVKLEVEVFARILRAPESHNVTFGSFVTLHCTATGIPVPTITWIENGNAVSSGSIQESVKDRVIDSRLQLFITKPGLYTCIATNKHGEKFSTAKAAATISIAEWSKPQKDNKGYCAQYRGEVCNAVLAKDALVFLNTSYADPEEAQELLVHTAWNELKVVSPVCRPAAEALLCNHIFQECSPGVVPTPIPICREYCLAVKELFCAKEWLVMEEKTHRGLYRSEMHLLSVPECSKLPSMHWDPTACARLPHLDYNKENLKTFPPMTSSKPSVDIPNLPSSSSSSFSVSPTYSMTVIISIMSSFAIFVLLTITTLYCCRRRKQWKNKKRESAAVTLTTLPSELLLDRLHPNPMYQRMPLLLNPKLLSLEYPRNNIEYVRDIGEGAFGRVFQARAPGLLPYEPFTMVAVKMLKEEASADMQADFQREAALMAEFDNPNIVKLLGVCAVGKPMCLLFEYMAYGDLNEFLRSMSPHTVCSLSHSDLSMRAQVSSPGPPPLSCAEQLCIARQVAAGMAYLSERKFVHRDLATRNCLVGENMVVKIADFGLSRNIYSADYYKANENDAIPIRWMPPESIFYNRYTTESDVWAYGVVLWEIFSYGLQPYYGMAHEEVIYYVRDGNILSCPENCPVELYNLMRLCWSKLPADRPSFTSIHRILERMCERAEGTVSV

382 unique human kinases [6] = biological target: 382 unique human kinases (Homo sapiens, UniProt Q9Y463); details: DYRK1B, [ATP] 20 µM, compound 10 uM; for remaining activity at 10 µM: read-out: % Enzyme Activity (relative to DMSO controls)
Sequence of 382 unique human kinases (Homo sapiens, UniProt Q9Y463) (Q9Y463 whole entry): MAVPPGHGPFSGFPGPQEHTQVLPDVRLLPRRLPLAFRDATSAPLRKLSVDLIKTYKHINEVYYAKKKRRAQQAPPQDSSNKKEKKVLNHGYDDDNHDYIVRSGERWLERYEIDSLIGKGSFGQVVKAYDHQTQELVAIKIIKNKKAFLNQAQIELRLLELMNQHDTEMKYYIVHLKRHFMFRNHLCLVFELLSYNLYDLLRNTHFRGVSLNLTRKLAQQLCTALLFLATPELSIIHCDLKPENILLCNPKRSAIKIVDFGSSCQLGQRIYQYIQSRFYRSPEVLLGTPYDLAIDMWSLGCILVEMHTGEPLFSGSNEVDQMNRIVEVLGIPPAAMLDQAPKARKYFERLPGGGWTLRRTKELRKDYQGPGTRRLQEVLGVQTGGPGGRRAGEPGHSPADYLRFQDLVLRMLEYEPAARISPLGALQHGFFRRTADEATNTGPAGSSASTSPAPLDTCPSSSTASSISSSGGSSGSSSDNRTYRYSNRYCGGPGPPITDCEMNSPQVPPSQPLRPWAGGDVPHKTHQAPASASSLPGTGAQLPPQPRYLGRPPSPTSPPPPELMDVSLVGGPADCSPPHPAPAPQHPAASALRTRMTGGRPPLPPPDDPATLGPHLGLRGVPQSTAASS

382 unique human kinases [7] = biological target: T6, 382 unique human kinases (Homo sapiens, UniProt P51451); details: BLK, [ATP] 10 µM
T6 construct: purchased Reaction Biology (HotSpot contract assay)
T6 sequence (P51451 whole entry): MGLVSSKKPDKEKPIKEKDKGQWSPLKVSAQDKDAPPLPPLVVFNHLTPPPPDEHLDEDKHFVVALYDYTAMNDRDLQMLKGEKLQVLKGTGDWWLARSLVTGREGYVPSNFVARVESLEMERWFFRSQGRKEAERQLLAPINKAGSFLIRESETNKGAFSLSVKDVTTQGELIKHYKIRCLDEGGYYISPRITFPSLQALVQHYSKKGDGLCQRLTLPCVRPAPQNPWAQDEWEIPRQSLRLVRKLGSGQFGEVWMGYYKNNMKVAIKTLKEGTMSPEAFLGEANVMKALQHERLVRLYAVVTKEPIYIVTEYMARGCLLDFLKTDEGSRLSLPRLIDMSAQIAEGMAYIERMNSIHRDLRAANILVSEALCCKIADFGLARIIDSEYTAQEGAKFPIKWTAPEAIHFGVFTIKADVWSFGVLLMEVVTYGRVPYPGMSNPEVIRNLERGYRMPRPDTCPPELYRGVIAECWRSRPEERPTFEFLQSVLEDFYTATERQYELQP

[8] = compound 10 uM, read-out: % Enzyme Activity (relative to DMSO controls)

SMILES	remaining activity at 10 µM (382 unique human kinases [1])	remaining activity at 10 µM (382 unique human kinases [2])	remaining activity at 10 µM (382 unique human kinases [3])	remaining activity at 10 µM (382 unique human kinases [4])	remaining activity at 10 µM (382 unique human kinases [5])	remaining activity at 10 µM (382 unique human kinases [6])	remaining activity at 1 µM (382 unique human kinases [7]; compound 1 uM, read-out: % Enzyme Activity (relative to DMSO controls))	remaining activity at 10 µM (382 unique human kinases [7]; [8])	% Enzyme Activity (relative to DMSO controls) (382 unique human kinases [1])	% Enzyme Activity (relative to DMSO controls) (382 unique human kinases [2])	% Enzyme Activity (relative to DMSO controls) (382 unique human kinases [3])	% Enzyme Activity (relative to DMSO controls) (382 unique human kinases [4])	% Enzyme Activity (relative to DMSO controls) (382 unique human kinases [5])	% Enzyme Activity (relative to DMSO controls) (382 unique human kinases [6])	% Enzyme Activity (relative to DMSO controls) (382 unique human kinases [7]; compound 10 uM)
CC(C)c1cc(-c2n[nH]c(=O)n2-c2ccc3c(ccn3C)c2)c(O)cc1O [Ganetespib (STA9090)]	83.4%	76.8%													
CC(C)c1cc(-c2n[nH]c(=O)n2-c2ccc3c(ccn3C)c2)c(O)cc1O [Ganetespib]			98.3%	94.9%	51.1%	45%	38.4%	7.74%							
CCNC(=O)c1noc(-c2cc(C(C)C)c(O)cc2O)c1-c1ccc(CN2CCOCC2)cc1 [Luminespib (AUY-922)]	94.9%	80.5%							91.57%	79.00%					
CCNC(=O)c1noc(-c2cc(C(C)C)c(O)cc2O)c1-c1ccc(CN2CCOCC2)cc1 [Luminespib]			100%	96%	90.6%	98.9%		38.1%			99.86%	94.98%	89.25%	97.25%	36.97%
